Measurements as given in patent US12186283B2, “Bismuth-thiol compositions and methods of use” (Microbion Corporation, priority 2018, dated 2025).
Read-outs that look alike come from different tables or passages of the source.

How the values were obtained:
Assay type in all cases: cell-based
[1] = system: Aspergillus spp.; experiment: Broth microdilution MIC/MEC, mold (Example 13); conditions: for MIC0 (complete inhibition): comparators, read time not given
[2] = system: Candida albicans; experiment: Broth microdilution MIC, yeast (Example 13); conditions: 24 hr
[3] = system: Candida auris; experiment: Broth microdilution MIC, yeast (Example 13)
[4] = system: Candida krusei; experiment: Broth microdilution MIC, yeast (Example 13)
[5] = system: Candida glabrata; experiment: Broth microdilution MIC, yeast (Example 13)
[6] = Candida albicans ATCC 90028, Susceptible
[7] = Candida albicans MMX 7053, Susceptible
[8] = Candida albicans MMX 7403, Susceptible
[9] = Candida albicans MMX 7430, Susceptible
[10] = Candida albicans MMX 7437, FLU-I
[11] = C. krusei ATCC 14243, Susceptible
[12] = C. krusei ATCC 96685, Susceptible
[13] = C. krusei MMX 7125, Susceptible
[14] = C. krusei MMX 7128, Susceptible
[15] = C. krusei MMX 7141, Susceptible
[16] = C. krusei MMX 7155, Susceptible
[17] = C. krusei MMX 7563, Susceptible
[18] = C. krusei MMX 9878, MICA-I, VORI-I
[19] = Candida glabrata ATCC 90030, Susceptible
[20] = Candida glabrata ATCC MYA-2950, Susceptible
[21] = Candida glabrata MMX 7087, Susceptible
[22] = Candida glabrata MMX 7111, Susceptible
[23] = Candida glabrata MMX 7549, Susceptible

OC(Cn1cncn1)(Cn1cncn1)c1ccc(F)cc1F [FLU]
MIC2 ([1]; A. flavus ATCC 22546): >64 µg/mL | MIC2 ([1]; A. flavus ATCC 204304): >64 µg/mL | MIC2 ([1]; A. flavus MMX 7935): >64 µg/mL | MIC2 ([1]; A. fumigatus ATCC 204305): >64 µg/mL | MIC2 ([1]; A. fumigatus ATCC MYA-3626): >64 µg/mL | MIC2 ([1]; A. fumigatus MMX 5934): >64 µg/mL | MIC2 ([1]; A. fumigatus MMX 5938): >64 µg/mL | MIC2 ([1]; A. fumigatus MMX 5939): >64 µg/mL | MIC2 ([1]; A. niger ATCC 29508): >64 µg/mL | MIC2 ([1]; A. terreus MMX 8229): >64 µg/mL | MIC2 (50% inhibition) [2, 6]: 0.25 µg/mL | MIC2 (50% inhibition) [2, 7]: 0.12 µg/mL | MIC2 (50% inhibition) [2, 8]: 1 µg/mL | MIC2 (50% inhibition) [2, 9]: 0.5 µg/mL | MIC2 (50% inhibition) [2, 10]: 4 µg/mL | MIC2 (50% inhibition) [3]: >64 µg/mL | MIC2 (50% inhibition) ([3]; C. auris MMX 9862, Susceptible): 2 µg/mL | MIC2 (50% inhibition) ([3]; C. auris MMX 9871, Susceptible): >64 µg/mL | MIC2 (50% inhibition) [4]: 32 µg/mL | MIC2 (50% inhibition) ([4]; C. krusei ATCC 6258, MICA-I): 16 µg/mL | MIC2 (50% inhibition) [4, 11]: 16 µg/mL | MIC2 (50% inhibition) [4, 12]: 32 µg/mL | MIC2 (50% inhibition) [4, 13]: 32 µg/mL | MIC2 (50% inhibition) [4, 14]: 16 µg/mL | MIC2 (50% inhibition) [4, 15]: 16 µg/mL | MIC2 (50% inhibition) [4, 16]: 32 µg/mL | MIC2 (50% inhibition) [4, 17]: 32 µg/mL | MIC2 (50% inhibition) [4, 18]: 64 µg/mL | MIC2 (50% inhibition) [5, 19]: 8 µg/mL | MIC2 (50% inhibition) [5, 20]: 8 µg/mL | MIC2 (50% inhibition) [5, 21]: 1 µg/mL | MIC2 (50% inhibition) [5, 22]: 2 µg/mL | MIC2 (50% inhibition) [5, 23]: 4 µg/mL

C[C@@H](c1ncncc1F)[C@](O)(Cn1cncn1)c1ccc(F)cc1F [VORI]
MIC0 (complete inhibition) ([1]; A. flavus ATCC 22546): 1 µg/mL | MIC0 (complete inhibition) ([1]; A. flavus ATCC 204304): 2 µg/mL | MIC0 (complete inhibition) ([1]; A. flavus MMX 7935): 0.5 µg/mL | MIC0 (complete inhibition) ([1]; A. fumigatus ATCC 204305): 0.5 µg/mL | MIC0 (complete inhibition) ([1]; A. fumigatus ATCC MYA-3626): 0.5 µg/mL | MIC0 (complete inhibition) ([1]; A. fumigatus MMX 5934): 0.25 µg/mL | MIC0 (complete inhibition) ([1]; A. fumigatus MMX 5938): 0.25 µg/mL | MIC0 (complete inhibition) ([1]; A. fumigatus MMX 5939): 2 µg/mL | MIC0 (complete inhibition) ([1]; A. niger ATCC 29508): 0.5 µg/mL | MIC0 (complete inhibition) ([1]; A. terreus MMX 8229): 0.25 µg/mL | MIC2 (50% inhibition) [2, 6]: ≤0.008 µg/mL | MIC2 (50% inhibition) ([2]; Candida albicans ATCC 204276, MICA-R): ≤0.008 µg/mL | MIC2 (50% inhibition) ([2]; Candida albicans ATCC MYA-2732, FLU-R, VORI-I): 0.5 µg/mL | MIC2 (50% inhibition) [2, 7]: ≤0.008 µg/mL | MIC2 (50% inhibition) ([2]; Candida albicans MMX 7067, FLU-R, VORI-R): >8 µg/mL | MIC2 (50% inhibition) [2, 8]: ≤0.008 µg/mL | MIC2 (50% inhibition) ([2]; Candida albicans MMX 7424, CASP-R, MICA-R): ≤0.008 µg/mL | MIC2 (50% inhibition) [2, 9]: ≤0.008 µg/mL | MIC2 (50% inhibition) [2, 10]: 0.12 µg/mL | MIC2 (50% inhibition) ([2]; Candida albicans MMX 7445, FLU-R, VORI-R): >8 µg/mL | MIC2 (50% inhibition) ([3]; C. auris MMX 9862, Susceptible): 0.03 µg/mL | MIC2 (50% inhibition) ([3]; C. auris MMX 9863, FLU-R, VORI-R): >8 µg/mL | MIC2 (50% inhibition) ([3]; C. auris MMX 9864, FLU-R, VORI-R): 2 µg/mL | MIC2 (50% inhibition) ([3]; C. auris MMX 9865, FLU-R, VORI-R): 8 µg/mL | MIC2 (50% inhibition) ([3]; C. auris MMX 9866, FLU-R, VORI-R): 8 µg/mL | MIC2 (50% inhibition) ([3]; C. auris MMX 9867, FLU-R, VORI-R): 8 µg/mL | MIC2 (50% inhibition) ([3]; C. auris MMX 9868, FLU-R, VORI-R): >8 µg/mL | MIC2 (50% inhibition) ([3]; C. auris MMX 9869, FLU-R, VORI-R): 2 µg/mL | MIC2 (50% inhibition) ([3]; C. auris MMX 9870, FLU-R, VORI-R): 4 µg/mL | MIC2 (50% inhibition) ([3]; C. auris MMX 9871, Susceptible): 1 µg/mL | MIC2 (50% inhibition) ([4]; C. krusei ATCC 6258, MICA-I): 0.12 µg/mL | MIC2 (50% inhibition) [4, 11]: 0.06 µg/mL | MIC2 (50% inhibition) [4, 12]: 0.5 µg/mL | MIC2 (50% inhibition) [4, 13]: 0.25 µg/mL | MIC2 (50% inhibition) [4, 14]: 0.12 µg/mL | MIC2 (50% inhibition) [4, 15]: 0.12 µg/mL | MIC2 (50% inhibition) ([4]; C. krusei MMX 7153, MICA-R): 0.25 µg/mL | MIC2 (50% inhibition) [4, 16]: 0.25 µg/mL | MIC2 (50% inhibition) [4, 17]: 0.25 µg/mL | MIC2 (50% inhibition) [4, 18]: 1 µg/mL | MIC2 (50% inhibition) [5, 19]: 0.12 µg/mL | MIC2 (50% inhibition) [5, 20]: 0.12 µg/mL | MIC2 (50% inhibition) [5, 21]: 0.03 µg/mL | MIC2 (50% inhibition) ([5]; Candida glabrata MMX 7093, FLU-R): 2 µg/mL | MIC2 (50% inhibition) ([5]; Candida glabrata MMX 7101, FLU-R): 2 µg/mL | MIC2 (50% inhibition) ([5]; Candida glabrata MMX 7103, CASP-R, MICA-R): 0.12 µg/mL | MIC2 (50% inhibition) [5, 22]: 0.06 µg/mL | MIC2 (50% inhibition) ([5]; Candida glabrata MMX 7285, CASP-R, MICA-R): 1 µg/mL | MIC2 (50% inhibition) ([5]; Candida glabrata MMX 7307, CASP-R, MICA-R, FLU-R): 4 µg/mL | MIC2 (50% inhibition) [5, 23]: 0.06 µg/mL
